Measurements published in ChEMBL document CHEMBL1201862, “PubChem BioAssay data set” (2004).
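Assay format: 96-well plates, 48-hour exposure. GI50 is the concentration that inhibits growth by half.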 Calls of active or inactive are those of the source. Rule as the data show it: active = GI50 up to about 1.1 µM and inactive = higher.

Columns and labels:
Assay in all cases: NCI tumour cell line growth inhibition, 48 h
[1] = system: COLO 205
[2] = system: HOP-92
[3] = system: M19-MEL
[4] = system: SNB-19
[5] = system: KM-20L2
[6] = system: A498
[7] = system: RPMI-8226
[8] = system: 786-0
[9] = system: DMS-273
[10] = system: HCC 2998
[11] = system: HL-60
[12] = system: DMS-114
[13] = system: DLD-1
[14] = system: SNB-78
[15] = system: SR

Measured: GI50

Clc1ccc(CCc2ccncn2)c(Cl)c1
inactive: [1] 64.9 µM | [2] 54.6 µM | [3] 47.8 µM | [4] 35.6 µM | [5] 73.5 µM | [6] 86.5 µM | [7] 25.5 µM | [8] > 100 µM | [9] 97.5 µM | [10] > 100 µM | [11] 30.1 µM | [12] 30.1 µM | [13] > 100 µM | [14] 61.5 µM

O=C(Nc1nc2ncn(CCNCc3ccccc3)c2c(=O)[nH]1)c1ccccc1
inactive: [1] > 100 µM | [2] > 100 µM | [3] > 100 µM | [5] > 100 µM | [6] > 100 µM | [7] 65.3 µM | [8] > 100 µM | [9] > 100 µM | [10] > 100 µM | [11] > 100 µM | [12] > 100 µM | [13] > 100 µM | [14] > 100 µM | [15] > 100 µM

CC12CC3(C)CC(C)(C1)CC(N=[N+]=[N-])(C2)C3
inactive: [1] > 100 µM | [2] > 100 µM | [3] > 100 µM | [4] > 100 µM | [6] > 100 µM | [7] > 100 µM | [8] > 100 µM | [9] > 100 µM | [10] > 100 µM | [12] > 100 µM | [13] > 100 µM | [14] > 100 µM | [15] > 100 µM

O=C1C(c2ccc(C3=[N+]([O-])c4cc([N+](=O)[O-])ccc4C3=O)cc2)=[N+]([O-])c2cc([N+](=O)[O-])ccc21
inactive: [1] > 10 µM | [2] > 10 µM | [3] > 10 µM | [4] > 10 µM | [5] > 10 µM | [6] > 10 µM | [7] > 10 µM | [8] 58.9 µM | [9] > 10 µM | [10] > 10 µM | [11] > 10 µM | [12] > 10 µM | [13] > 10 µM | [14] 8.91 µM

S=c1sc2cscc2s1
inactive: [1] 17.7 µM | [2] 24.8 µM | [3] 18.5 µM | [4] 21.3 µM | [5] 27 µM | [6] 71.6 µM | [7] 47.6 µM | [8] 19.8 µM | [9] 31.1 µM | [10] 18.7 µM | [11] 28.1 µM | [12] 22.8 µM | [13] 21 µM | [14] 30.5 µM | [15] 27.8 µM

CC(=O)OCC1=C(COC(C)=O)C(=O)c2c(O)ccc(O)c2C1=O
inactive: [1] 2.38 µM | [2] 2.54 µM | [3] 1.73 µM | [5] 13.4 µM | [6] 18.4 µM | [7] 3.2 µM | [9] 15.5 µM | [10] 15.9 µM | [11] 1.49 µM | [12] 11.2 µM | [13] 1.43 µM | [14] 3.78 µM | [15] 5.47 µM
